Test results: US12492174B2, “Morpholine-3-carboxamide derivatives as prostaglandin E2 receptor 4 (EP4) agonists for the treatment of gastrointestinal and pulmonary diseases” (NXERA PHARMA UK LIMITED, priority 2022, dated 2025)

Key:
human EP4 = target: T1, human EP4 (Homo sapiens, UniProt P35408); assay: cAMP Gs functional assay (HTRF cAMP dynamic-2); type: cell-based; settings: for Emax: HEK293, HEK293 cells transfected with EP4 Bacmam virus, positive control 10 uM PGE2; for EC50: HEK293 cells transfected with EP4 Bacmam virus, 30 mins at 37° C., −Log of the molarity (M), read-out: cAMP human EP4 pEC50 (converted)
T1 construct: expressed in transfected cells; host or cells: HEK293 cells transduced with EP4 BacMam virus
Experimental: Cloning, Baculovirus generation, large scale infection of HEK293 cells and membrane preparation: Human prostaglandin E2 receptor 4 (EP4) was cloned into pBacMam expression vector (GeneScript, UK). Transposition of EP4 DNA was performed using Invitrogen's Bac-to-Bac Baculovirus Expression Systems. P0 baculovirus was generated by transfecting SF9 Cells with bacmid DNA using Cellfectin II transfection reagent (ThermoFisher Scientific, UK). Following P0 generation P1 virus was then generated ready for large scale infection and membrane preparation. HEK293 cells were grown in DMEM (ThermoFisher Scientific, UK), supplemented with 10% heat inactivated fetal bovine serum (FBS). Cells were infected at a seeding density of 3.5 million cells/mL in 500 cm^3 flasks at 5% v/v EP4 Bacman. Expression was carried out over a 36 hr period at 37° C. with 5% CO2. The cells were removed using PBS and a cell scrapper. The cell culture was centrifuged at 2500 RPM for 10 mins at 4° C. The supernatant was then poured off and the pellet stored at −80° C. The pellet was defrosted and re-suspended in 15 mL of homogenising buffer (20 mM HEPES, 10 mM EDTA, pH 7.4). Then homogenised in mechanical homogeniser (VMR) for 10 seconds. The membrane was centrifuged in centrifuge tubes at 40,000 g for 15 mins at 4° C. The supernatant was poured away and re-suspended in 15 mL of homogenising buffer. Homogenised for 20 seconds. The membrane was centrifuged at 40,000 g for 45 mins at 4° C. The membrane was re-suspended in 3 mL of storage buffer (20 mM HEPES, 0.1 mM EDTA, pH 7.4) mixing well. The resulting membranes were then stored at −80° C.
cAMP Gs Functional Assay: cAMP production following EP4 receptor activation was determined using the Homogeneous Time-Resolved Fluorescence (HTRF) cAMP dynamic-2 assay (Cisbio, France). HEK293 cells were transfected using a 0.5% EP4 Bacmam virus for 36 hours, before dissociating the cells, and freezing at −150° C.
On the day of testing, increasing concentration of test compounds, alongside positive controls (10 uM PGE2 (Tocris, Abingdon, UK)) and negative control (DMSO (Sigma-Aldrich, UK) were added to a ProxiPlate-384 Plus, White 384-shallow well Mircoplate, (PerkinElmer, USA) using the ECHO dispense.
Cells were defrosted in a water bath and resuspended in DMEM supplemented with 10% FBS before centrifuging at 1200 RPM for 5 mins to form a pellet. The pellet was resuspended in assay buffer (DMEM+0.5 mM IBMX (Tocris, Abingdon, UK)) to 0.5×10^6 cells/mL. Cell suspension, for a final assay concentration of 5000 cell/well was added using the multidrop to the pre-dispensed assay plate. The plate was then incubated at 37° C. for 30 mins, with 5% CO2. The cAMP production was determined as manufacturer's instructions, before plates were read on a PheraStar fluorescence plate reader (BMG LabTech, Germany).
The pEC50 values (−Log of the molarity (M) in mol/liter) were calculated from the mid-point of the curve using dotmatics as shown in Table 3.

[1] = Unidirectional Caco-2 cell permeability assay; type: in vitro ADME; settings: human, n=2, apical pH 6.5, basolateral pH 7.4, 1 hour, 37° C.
Experimental: Caco-2 cells (ECACC) were seeded onto 24-well Transwell plates at 2×10^5 cells per well and used in confluent monolayers after a 21 day culture at 37° C. under 5% CO2. Test compounds were incubated at 10 μM, 0.2% DMSO final, n=2 in assay buffer (Hanks balanced salt solution supplemented with 25 mM HEPES, adjusted to pH 6.5). Hanks balanced salt solution supplemented with 25 mM HEPES, adjusted to pH 7.4 (0.2% DMSO final) was used for the basolateral chamber (as receiver).
Incubations were performed at 37° C., with samples removed from both donor and acceptor chambers at T=0 and 1 hour and compound analysed by mass spectrometry (LC-MS/MS) including an analytical internal standard (0.5 μM carbamazepine).
Apparent permeability (Papp) values are shown in Table 4 and were determined from the relationship:
Where V is the volume of each Transwell compartment (apical 125 μL, basolateral 600 μL), and concentrations are the relative MS responses for compound (normalized to internal standard) in the donor chamber before incubation and acceptor chamber at the end of the incubation Area=area of cells exposed for drug transfer (0.33 cm^2).
Lucifer Yellow (LY) was added to the apical buffer in all wells to assess viability of the cell layer. As LY cannot freely permeate lipophilic barriers, a high degree of LY transport indicates poor integrity of the cell layer and wells with a LY Papp>10×10^−6 cm/s were rejected.
Compound recovery from the wells was determined from MS responses (normalized to internal standard) in donor and acceptor chambers at the end of incubation compared to response in the donor chamber pre-incubation.

T1 sequence (P35408 whole entry): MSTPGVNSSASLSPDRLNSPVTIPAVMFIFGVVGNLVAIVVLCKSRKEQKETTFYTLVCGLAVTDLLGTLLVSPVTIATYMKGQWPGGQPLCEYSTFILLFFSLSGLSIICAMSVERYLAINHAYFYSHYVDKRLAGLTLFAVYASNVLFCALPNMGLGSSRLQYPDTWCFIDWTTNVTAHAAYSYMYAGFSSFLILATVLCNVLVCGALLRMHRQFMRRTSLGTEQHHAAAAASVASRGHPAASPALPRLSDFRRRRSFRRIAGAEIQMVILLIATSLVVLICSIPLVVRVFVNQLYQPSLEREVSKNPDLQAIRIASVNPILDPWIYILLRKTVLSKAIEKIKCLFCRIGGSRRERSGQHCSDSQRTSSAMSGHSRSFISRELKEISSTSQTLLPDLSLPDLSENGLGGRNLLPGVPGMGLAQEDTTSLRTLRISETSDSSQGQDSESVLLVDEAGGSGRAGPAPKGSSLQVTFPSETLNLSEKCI

SMILES | Emax (human EP4) [%] | EC50 (human EP4) [M] | Papp A→B at 1 h, 10 μM [1] [×10⁻⁶ cm/s]
Cc1cc(C(N)=O)ccc1-c1cccc(CN2CCOC[C@@H]2C(=O)NC2(c3ccc(C(=O)O)cc3)CC2)c1 [Example 31, (R)-4-(1-(4-((4′-carbamoyl-2′-methyl-[1,1′-biphenyl]-3-yl)methyl)morpholine-3-carboxamido)cyclopropyl)benzoic acid] | 98 | 1.26e-10 | 0.66
Cc1cc(S(N)(=O)=O)ccc1-c1cc(O)cc(CN2CCOC[C@@H]2C(=O)N[C@@H](C)c2ccc(C(=O)O)cc2)c1 [Example 11, 4-[(1S)-1-[[(3R)-4-[[3-hydroxy-5-(2-methyl-4-sulfamoyl-phenyl)phenyl]methyl]morpholine-3-carbonyl]amino]ethyl]benzoic acid] | 98 | 3.98e-10 | < 0.1
Cc1cc(C(N)=O)ccc1-c1cccc(CN2CCOC[C@@H]2C(=O)NCc2ccc(C(=O)O)nc2)c1 [Example 9, 5-[[[(3R)-4-[[3-(4-carbamoyl-2-methyl-phenyl)phenyl]methyl]morpholine-3-carbonyl]amino]methyl]pyridine-2-carboxylic acid] | 97 | 3.98e-08 | 0.24
Cc1cc(S(N)(=O)=O)ccc1-c1cncc(CN2CCOC[C@@H]2C(=O)N[C@@H](C)c2ccc(C(=O)O)c(O)c2)c1 [Example 21, 2-hydroxy-4-((S)-1-((R)-4-((5-(2-methyl-4-sulfamoylphenyl)pyridin-3-yl)methyl)morpholine-3-carboxamido)ethyl)benzoic acid] | 99 | 1.58e-08 | < 0.1
Cc1cc(C(N)=O)ccc1-c1cc(O)cc(CN2CCOC[C@@H]2C(=O)NC2(c3ccc(C(=O)O)cc3)CC2)c1 [Example 33, (R)-4-(1-(4-((4′-carbamoyl-5-hydroxy-2′-methyl-[1,1′-biphenyl]-3-yl)methyl)morpholine-3-carboxamido)cyclopropyl)benzoic acid] | 93 | 3.16e-12 | 0.14
Cc1cc(C(N)=O)ccc1-c1cc(CN2CCOC[C@@H]2C(=O)N[C@@H](C)c2ccc(C(=O)O)cc2)ccn1 [Example 3, 4-[(1S)-1-[[(3R)-4-[[2-(4-carbamoyl-2-methyl-phenyl)-4-pyridyl]methyl]morpholine-3-carbonyl]amino]ethyl]benzoic acid] | 96 | 6.31e-08 | 0.57

Second part, the molecule after the results:

Emax (human EP4) [%] | EC50 (human EP4) [M] | Papp A→B at 1 h, 10 μM [1] [×10⁻⁶ cm/s] | SMILES
94 | 2e-08 | < 0.1 | Cc1cc(C(N)=O)ccc1-c1cc(O)cc(CN2CCOC[C@H]2C(=O)N[C@H](C)c2ccc(C(=O)O)cc2)c1 [Example 38, 4-((R)-1-((S)-4-((4′-carbamoyl-5-hydroxy-2′-methyl-[1,1′-biphenyl]-3-yl)methyl)morpholine-3-carboxamido)ethyl)benzoic acid]
95 | 7.94e-08 | 0.15 | C[C@H](NC(=O)[C@H]1COCCN1Cc1cccc(-c2ccc(C(N)=O)cc2O)c1)c1ccc(C(=O)O)cc1 [Example 14, 4-((S)-1-((R)-4-((4′-carbamoyl-2′-hydroxy-[1,1′-biphenyl]-3-yl)methyl)morpholine-3-carboxamido)ethyl)benzoic acid]
99 | 1.58e-09 | 0.66 | Cc1cc(C(N)=O)ccc1-c1cccc(CN2CCOC[C@@H]2C(=O)N[C@@H](C)c2ccc(C(=O)O)cc2)c1 [Example 7, 4-((S)-1-((R)-4-((4′-carbamoyl-2′-methyl-[1,1′-biphenyl]-3-yl)methyl)morpholine-3-carboxamido)ethyl)benzoic acid]
98 | 2e-10 | < 0.1 | Cc1cc(C(N)=O)ccc1-c1cc(O)cc(CN2CCOC[C@@H]2C(=O)N[C@@H](C)c2ccc(C(=O)O)cc2)c1 [Example 10, 4-((S)-1-((R)-4-((4′-carbamoyl-5-hydroxy-2′-methyl-[1,1′-biphenyl]-3-yl)methyl)morpholine-3-carboxamido)ethyl)benzoic acid]
